From patent US20240208950A1, “COMPOSITIONS AND METHODS FOR TREATMENT OF CERVICAL AND OVARIAN CANCER” (SOUTH DAKOTA BOARD OF REGENTS, priority 2021, published 2024) come the findings set out here.

This assay relates to SiHa cells. Put plainly: Cell migration (agarose bead, scratch wound), SiHa. It counts as cell-based, human. As to conditions: 0 and 48 hours. The procedure: FIGS. 7B and 7D show the effect of ORM-Br on motility potential of CaSki cells (FIG. 7B) and SiHa cells (FIG. 7D) as predicted by agarose bead assay. The images shown in FIGS. 7A-7D represent the migratory cells (MC) in control and ORM-Br treated groups at 0 and 48 hours. In FIGS. 7B and 7D, AB means agarose beads. In FIGS. 7A-7D the images magnification were at 4.
Cell motility was performed by in vitro scratch wound assay. Briefly, cells were seeded in a 12-wells plate and after 80-90% confluency a standardized wound was made using a 200 μL micropipette tip. Cells were then treated with Br-ORM (10 μM) and photographed by phase contrast microscopy. […]
FIG. 14. […] Effect of Br-ORM on cell migration of cervical cancer cells as determined by agarose bead (FIG. 14A), scratch wound healing (FIG. 14B), and Boyden chamber assay (FIG. 14C). […] Closure of wound was determined and photographed using phase contrast microscopy. […] Bar graph represent the quantification of migrated CaSki cells of control and Br-ORM treated groups (FIG. 14C(ii)). […] Effect of Br-ORM treatment on invasion of CaSki cells as determined by a commercially available kit (BD Biosciences) as described in materials and methods. In brief, 24 hours post-treatment of Br-ORM, invaded cells were fixed, stained and counted. […] Bar graph represent the quantification of invaded CaSki cells of control and Br-ORM treated groups (FIG. 14D(ii)). […]

Regarding `COc1ccc2c(c1)OC(C)(C)C(c1ccc(Br)cc1)C2c1ccc(OCCN2CCCC2)cc1` (centres unmarked) [ORM-Br], the “cell migration / motility” value is “inhibits the migration”. In addition, the “cell migration / motility” value (listed as Br-ORM) was “dose dependent inhibition of migration abilities”.
